Each molecule was assayed against p38 (Homo sapiens, UniProt Q16539) (assay: Protein Kinase Assay (33P incorporation from γ-[33P]ATP into GST-ATF-2)). Details: 2 nM p38, preincubated 20 min at 30° C.; 10 uM cold ATP, 2 uM GST-ATF2, 70 min; read-out: ACT. (Activity), IC50 category in Protein Kinase Assay.
Type: biochemical
In short: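 Compounds preincubated 20 min at 30 °C with 2 nM p38; reaction started with 2 uM GST-ATF-2 (aa 19-96) and 10 uM ATP plus γ-[33P]ATP, pH 7.5, 70 min at 30 °C, 2% DMSO. Phosphoric acid stop; 33P-labelled substrate captured on phosphocellulose and counted by scintillation.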

Sequence of p38 (Q16539 whole entry): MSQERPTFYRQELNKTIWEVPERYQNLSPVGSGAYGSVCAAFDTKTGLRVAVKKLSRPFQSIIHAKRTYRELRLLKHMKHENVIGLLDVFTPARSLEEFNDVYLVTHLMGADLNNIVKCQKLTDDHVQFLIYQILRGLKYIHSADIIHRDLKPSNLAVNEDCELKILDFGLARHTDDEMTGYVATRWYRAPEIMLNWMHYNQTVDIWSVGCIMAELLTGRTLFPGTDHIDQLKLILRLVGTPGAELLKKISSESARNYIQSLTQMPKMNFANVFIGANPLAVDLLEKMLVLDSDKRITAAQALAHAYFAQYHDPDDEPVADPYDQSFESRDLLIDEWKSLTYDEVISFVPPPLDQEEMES

| IC50 [nM] | SMILES |
| --- | --- |
| < 100 | Cc1ccc(NC(=O)Nc2sc(C(C)(C)C)cc2C(=O)N2CCN(C)C(=O)C2(C)C)cc1-c1ccc(C(C)N2CCOCC2)nc1 (stereo not drawn) [1-(5-tert-butyl-3-(2,2,4-trimethyl-3-oxopiperazine-1-carbonyl)thiophen-2-yl)-3-(4-methyl-3-(6-(1-morpholinoethyl)pyridin-3-yl)phenyl)urea] |
| < 100 | Cc1ccc(NC(=O)Nc2cn(C(C)(C)C)nc2C(=O)N2CCN(C)C(=O)C2(C)C)cc1-c1ccc(CN2CCOCC2)cn1 [1-(1-tert-butyl-3-(2,2,4-trimethyl-3-oxopiperazine-1-carbonyl)-1H-pyrazol-4-yl)-3-(4-methyl-3-(5-(morpholinomethyl)pyridin-2-yl)phenyl)urea] |
| < 100 | Cc1ccc(NC(=O)Nc2cc(C(C)(C)C)sc2C(=O)N2CCNC(=O)C2(C)C)cc1-c1ccc(N2CCOCC2)cn1 [1-(5-tert-butyl-2-(2,2-dimethyl-3-oxopiperazine-1-carbonyl)thiophen-3-yl)-3-(4-methyl-3-(5-morpholinopyridin-2-yl)phenyl)urea] |
| < 10000 | CN1CCN(c2cccc(NC(=O)Nc3sc(C(C)(C)C)cc3C(=O)N3CCNC(=O)C3(C)C)c2)CC1 [1-(5-tert-butyl-3-(2,2-dimethyl-3-oxopiperazine-1-carbonyl)thiophen-2-yl)-3-(3-(4-methylpiperazin-1-yl)phenyl)urea] |
| < 100 | Cc1ccc(NC(=O)Nc2sc(C(C)(C)C)cc2C(=O)N2CCN(C)C(=O)C2(C)C)cc1-c1ccc(CN2CCOCC2)cn1 [1-(5-tert-butyl-3-(2,2,4-trimethyl-3-oxopiperazine-1-carbonyl)thiophen-2-yl)-3-(4-methyl-3-(5-(morpholinomethyl)pyridin-2-yl)phenyl)urea] |
| < 100 | CCNC(=O)c1ccc(-c2cc(NC(=O)Nc3cc(C(C)(C)C)oc3C(=O)N3CCN(C)C(=O)C3(C)C)ccc2C)cn1 [5-(5-(3-(5-tert-butyl-2-(2,2,4-trimethyl-3-oxopiperazine-1-carbonyl)furan-3-yl)ureido)-2-methylphenyl)-N-ethylpyridine-2-carboxamide] |
| < 100 | Cc1ccc(NC(=O)Nc2sc(C(C)(C)C)cc2C(=O)N2CCN(C)C(=O)C2(C)C)cc1-c1ccc(CN2CCN(C)CC2)nc1 [1-(5-tert-butyl-3-(2,2,4-trimethyl-3-oxopiperazine-1-carbonyl)thiophen-2-yl)-3-(4-methyl-3-(6-((4-methylpiperazin-1-yl)methyl)pyridin-3-yl)phenyl)urea] |
| < 100 | Cc1ccc(NC(=O)Nc2sc(C(C)(C)C)cc2C(=O)N2CCNC(=O)C2(C)C)cc1C#CCN1CCOCC1 [1-(5-tert-butyl-3-(2,2-dimethyl-3-oxopiperazine-1-carbonyl)thiophen-2-yl)-3-(4-methyl-3-(3-morpholinoprop-1-ynyl)phenyl)urea] |
| < 100 | CC(C)(C)c1cc(C(=O)N2CCNC(=O)C2(C)C)c(NC(=O)Nc2cccc(-c3cnco3)c2)s1 [1-(5-tert-butyl-3-(2,2-dimethyl-3-oxopiperazine-1-carbonyl)thiophen-2-yl)-3-(3-(oxazol-5-yl)phenyl)urea] |
| < 1000 | Cc1ccc(NC(=O)Nc2sc(C(C)(C)C)cc2C(=O)N2CCN(C(=O)CN(C)C)CC2)cc1-c1cccnc1 [1-(5-tert-butyl-3-(4-(2-(dimethylamino)ethanoyl)piperazine-1-carbonyl)thiophen-2-yl)-3-(4-methyl-3-(pyridin-3-yl)phenyl)urea] |
| < 100 | Cc1ccc(NC(=O)Nc2sc(C(C)(C)C)cc2C(=O)N2CCNS(=O)(=O)CC2)cc1-c1ccc(CN2CCOCC2)nc1 |
| < 100 | Cc1ccc(-c2cc(NC(=O)Nc3sc(C(C)(C)C)cc3C(=O)N3CCN(C)C(=O)C3(C)C)ccc2C)cn1 [1-(5-tert-butyl-3-(2,2,4-trimethyl-3-oxopiperazine-1-carbonyl)thiophen-2-yl)-3-(4-methyl-3-(6-methylpyridin-3-yl)phenyl)urea] |
| < 100 | COc1ccc(-c2cc(NC(=O)Nc3sc(C(C)(C)C)cc3C(=O)N3CCNC(=O)C3(C)C)c(F)cc2C)cn1 [1-(5-tert-butyl-3-(2,2-dimethyl-3-oxopiperazine-1-carbonyl)thiophen-2-yl)-3-(2-fluoro-5-(6-methoxypyridin-3-yl)-4-methylphenyl)urea] |
| < 100 | Cc1ccc(NC(=O)Nc2sc(C(C)(C)C)nc2C(=O)N2CCN(C)C(=O)C2(C)C)cc1-c1ccc(CN2CCOCC2)cn1 [1-(2-tert-butyl-4-(2,2,4-trimethyl-3-oxopiperazine-1-carbonyl)thiazol-5-yl)-3-(4-methyl-3-(5-(morpholinomethyl)pyridin-2-yl)phenyl)urea] |
| < 100 | Cc1ccc(NC(=O)Nc2sc(C(C)(C)C)cc2C(=O)N2CCNC(=O)C2(C)C)cc1-c1ccc(N2CCC(N(C)C)C2)nc1 (stereo not drawn) [1-(5-tert-butyl-3-(2,2-dimethyl-3-oxopiperazine-1-carbonyl)thiophen-2-yl)-3-(3-(6-(3-(dimethylamino)pyrrolidin-1-yl)pyridin-3-yl)-4-methylphenyl)urea] |
| < 100 | Cc1ccc(NC(=O)Nc2sc(C(C)(C)C)cc2C(=O)N2CCNC(=O)C2(C)C)cc1C#N [1-(5-tert-butyl-3-(2,2-dimethyl-3-oxopiperazine-1-carbonyl)thiophen-2-yl)-3-(3-cyano-4-methylphenyl)urea] |
| < 100 | CC(C)(C)c1cc(C(=O)N2CCNC(=O)C2(C)C)c(NC(=O)Nc2cccc(-c3ccc(OCCN4CCOCC4)nc3)c2)s1 [1-(5-tert-butyl-3-(2,2-dimethyl-3-oxopiperazine-1-carbonyl)thiophen-2-yl)-3-(3-(6-(2-morpholinoethoxy)pyridin-3-yl)phenyl)urea] |
| < 100 | COc1ccc(-c2cc(NC(=O)Nc3sc(C(C)(C)C)cc3C(=O)N3CCN(CCO)C(=O)C3(C)C)ccc2C)cn1 [1-(5-tert-butyl-3-(4-(2-hydroxyethyl)-2,2-dimethyl-3-oxopiperazine-1-carbonyl)thiophen-2-yl)-3-(3-(6-methoxypyridin-3-yl)-4-methylphenyl)urea] |
| < 100 | CC(C)(C)c1cc(C(=O)N2CCNC(=O)C2(C)C)c(NC(=O)Nc2cccc(-c3ccncc3)c2)s1 [1-(5-tert-butyl-3-(2,2-dimethyl-3-oxopiperazine-1-carbonyl)thiophen-2-yl)-3-(3-(pyridin-4-yl)phenyl)urea] |
| < 100 | Cc1ccc(NC(=O)Nc2sc(C(C)(C)C)cc2C(=O)N2CCNC(=O)C2(C)C)cc1-c1ccc(N2CCC(N)C2)nc1 (stereo not drawn) [1-(3-(6-(3-aminopyrrolidin-1-yl)pyridin-3-yl)-4-methylphenyl)-3-(5-tert-butyl-3-(2,2-dimethyl-3-oxopiperazine-1-carbonyl)thiophen-2-yl)urea] |
| < 100 | CCc1ccc(-c2cc(NC(=O)Nc3sc(C(C)(C)C)cc3C(=O)N3CCN(C)C(=O)C3(C)C)ccc2C)nc1 [1-(5-tert-butyl-3-(2,2,4-trimethyl-3-oxopiperazine-1-carbonyl)thiophen-2-yl)-3-(3-(5-ethylpyridin-2-yl)-4-methylphenyl)urea] |
| < 100 | CC(C)(C)c1cc(C(=O)N2CCNC(=O)C2(C)C)c(NC(=O)Nc2cccc(-c3cccnc3)c2)s1 [1-(5-tert-butyl-3-(2,2-dimethyl-3-oxopiperazine-1-carbonyl)thiophen-2-yl)-3-(3-(pyridin-3-yl)phenyl)urea] |
| < 100 | Cc1nc(-c2cccc(NC(=O)Nc3sc(C(C)(C)C)cc3C(=O)N3CCNC(=O)C3(C)C)c2)cs1 [1-(5-tert-butyl-3-(2,2-dimethyl-3-oxopiperazine-1-carbonyl)thiophen-2-yl)-3-(3-(2-methylthiazol-4-yl)phenyl)urea] |
| < 100 | Cc1ccc(NC(=O)Nc2sc(C(C)(C)C)cc2C(=O)N2CCNC(=O)C2(C)C)cc1-c1ccc(OCCN(C)C)nc1 [1-(5-tert-butyl-3-(2,2-dimethyl-3-oxopiperazine-1-carbonyl)thiophen-2-yl)-3-(3-(6-(2-(dimethylamino)ethoxy)pyridin-3-yl)-4-methylphenyl)urea] |
| < 100 | Cc1ccc(NC(=O)Nc2cn(C(C)(C)C)nc2C(=O)N2CCN(C)C(=O)C2(C)C)cc1-c1ccc(CN2CCOCC2)nc1 [1-(1-tert-butyl-3-(2,2,4-trimethyl-3-oxopiperazine-1-carbonyl)-1H-pyrazol-4-yl)-3-(4-methyl-3-(6-(morpholinomethyl)pyridin-3-yl)phenyl)urea] |
| < 100 | Cc1ccc(NC(=O)Nc2sc(C(C)(C)C)cc2C(=O)N2CCNC(=O)C2(C)C)cc1-c1ccc(N2CCOCC2)cn1 [1-(5-tert-butyl-3-(2,2-dimethyl-3-oxopiperazine-1-carbonyl)thiophen-2-yl)-3-(4-methyl-3-(5-morpholinopyridin-2-yl)phenyl)urea] |
| < 100 | Cc1ccc(NC(=O)Nc2sc(C(C)(C)C)cc2C(=O)N2CCN(C)C(=O)C2(C)C)cc1-c1ccc(C(=O)N2CCOCC2)nc1 [1-(5-tert-butyl-3-(2,2,4-trimethyl-3-oxopiperazine-1-carbonyl)thiophen-2-yl)-3-(4-methyl-3-(6-(morpholine-4-carbonyl)pyridin-3-yl)phenyl)urea] |
| < 100 | Cc1ccc(NC(=O)Nc2cn(C(C)(C)C)nc2C(=O)N2CCNC(=O)C2(C)C)cc1-c1ccc(CN2CCOCC2)cn1 [1-(1-tert-butyl-3-(2,2-dimethyl-3-oxopiperazine-1-carbonyl)-1H-pyrazol-4-yl)-3-(4-methyl-3-(5-(morpholinomethyl)pyridin-2-yl)phenyl)urea] |
| < 100 | Cc1ccc(NC(=O)Nc2cc(C(C)(C)C)sc2C(=O)N2CCN(C)C(=O)C2)cc1-c1ccc(CN2CCOCC2)nc1 [1-(5-tert-butyl-2-(4-methyl-3-oxopiperazine-1-carbonyl)thiophen-3-yl)-3-(4-methyl-3-(6-(morpholinomethyl)pyridin-3-yl)phenyl)urea] |
| < 100 | CCNC(=O)c1ccc(-c2cc(NC(=O)Nc3cn(C(C)(C)C)nc3C(=O)N3CCN(C)C(=O)C3(C)C)ccc2C)cn1 [5-(5-(3-(1-tert-butyl-3-(2,2,4-trimethyl-3-oxopiperazine-1-carbonyl)-1H-pyrazol-4-yl)ureido)-2-methylphenyl)-N-ethylpyridine-2-carboxamide] |

Source: patent publication US20100041642A1, “UREA INHIBITORS OF MAP KINASES” (LOCUS PHARMACEUTICALS, INC., priority 2008, published 2010)
